This note sets out measurements from patent publication US20150274751A1, “TREATMENT OF S[…] AN INHIBITOR OF CBP/CATENIN” (PRISM Pharma Co., Ltd., priority 2012, published 2015).

Data set [1] relates to bleomycin-induced dermal fibrosis. As to the kind of experiment: murine model of bleomycin-induced dermal fibrosis (histopathology scores). The format is in vivo, female C3H/HeJ inbred mice (Mus musculus). The text has this:
The objective of this study was to assess the effects of the test article Compound A, an alpha helix mimetic β-catenin inhibitor compound, in a murine model of bleomycin-induced dermal fibrosis. Compound A is 4-(((6S,9S,9aS)-1-(benzylcarbamoyl)-2,9-dimethyl-4,7-dioxo-8-(quinolin-8-ylmethyl)octahydro-1H-pyrazino[2,1-c][1,2,4]triazin-6-yl)methyl)phenyl dihydrogen phosphate. Negative and positive control articles were phosphate buffered saline (PBS) and dexamethasone (DEX, a known treatment for scleroderma), respectively.
The high-dose (0.5 mg/mL) dosing solution of test article was prepared by mixing 4 mL of test article (stock solution at […]) with 36 mL of PBS. The low-dose (0.05 mg/mL) dosing solution was prepared by mixing 4 mL of the high-dose test article dosing solution (0.5 mg/mL) with 36 mL of PBS. The DEX dosing solution (1 mg/mL) was prepared by mixing 1 mL of the DEX stock solution (3 mg/mL) with 2 mL of PBS. The test and positive control articles were prepared once weekly, aliquoted and stored at 4° C. protected from light.
Forty-five female C3H/HeJ inbred mice (Mus musculus) at ages of approximately 6 weeks were obtained from Jackson Laboratory (Bar Harbor, Me.) for use in the study. Mice were selected for the study since these animals are an accepted species frequently used in pre-clinical evaluation of drugs intended for human use.
(§1) Dermal fibrosis was induced locally by six weeks of once-daily subcutaneous injections of bleomycin (0.1 U in 0.1 mL) into a defined area on the back of each mouse. Test and control articles were administered by twice-daily intraperitoneal injection starting from Day 14 (i.e., two weeks after the initiation of bleomycin injection). For mice of Groups 1-4, test/control article were administered (BID, IP) for four weeks, starting from Day 14 (i.e., two weeks after the initial bleomycin injection) administration was performed twice daily. Group 1 received negative control article (PBS) at 200 μL/mouse. Groups 2 and 3 received low- and high-dose test article dosing solutions (0.05 and 0.5 mg/mL Compound A) at doses of 0.5 and 5 mg/kg, respectively. Group 4 received DEX dosing solution (1 mg/mL) at doses of 1 mg/kg. […]
Mice were euthanized on Day 42, i.e., following six weeks of bleomycin injection and four weeks of test/control article treatment. A full gross necropsy was performed on each mouse, and any macroscopic abnormality was recorded. […]
Formalin-fixed skin and lung tissues from each mouse were processed for histopathology. […] Slides were evaluated for dermal fibrosis and dermal inflammation. […] Dermal fibrosis and inflammation were scored using the industry standard 5-point scoring system as follows: 0=no significant changes; 1=trace to minimal severity; 2=mild severity; 3=moderate severity; 4=marked severity. […]

Data set [2] is described as follows: body weight in bleomycin-injected mice. The format is in vivo, female C3H/HeJ inbred mice (Mus musculus). To be noted: Group 4: bleomycin plus DEX 1 mg/kg IP BID; differences among groups at sacrifice not significant (P>0.05). How it is done:
as §1, with “mg/kg. For animals of Groups 2-4, doses were administered at dose volumes of 10 mL/kg, and dose volumes for individual animals were recalculated once weekly based on the most recent body weights. Animals were administered bleomycin and test and control articles in two cohorts, with dosing staggered by one day. Cohort A was composed of the first five animals in each group [x01-x05, where x denoted the study group number (1, 2, 3, or 4)]. Cohort B was composed of the remaining animals (x06-x10).” for “mg/kg.”

With `C[C@H]1[C@H]2N(C(=O)CN(C)N2C(=O)NCc2ccccc2)[C@@H](Cc2ccc(OP(=O)(O)O)cc2)C(=O)N1Cc1cccc2cccnc12` [Compound A, 4-(((6S,9S,9aS)-1-(benzylcarbamoyl)-2,9-dimethyl-4,7-dioxo-8-(quinolin-8-ylmethyl)octahydro-1H-pyrazino[2,1-c][1,2,4]triazin-6-yl)methyl)phenyl dihydrogen phosphate], the “dermal sclerosis scores vs vehicle-treated mice (FIG. 1)” value in data set [1] (Compound A at either dose (0.5 and 5 mg/kg IP BID Days 14-41), Day 42, P<0.01) was “significant decrease”. The “dermal fibrosis (summary)” value in data set [1] (bleomycin-injected mice, treatment IP BID Days 14-41) is on record as “ameliorated”. In addition, the dermal inflammation scores result in data set [1] (bleomycin-injected mice, Compound A 0.5 and 5 mg/kg IP BID Days 14-41, Day 42 histopathology, 0-4 score) is reported as “did not significantly affect”. Also, the “amount of dermal fibrosis (qualitative histopathology)” value in data set [1] (both test article-treated groups (0.5 and 5 mg/kg IP BID), Day 42) is “mildly reduce”.
For `C[C@@H]1C[C@H]2[C@@H]3CCC4=CC(=O)C=C[C@]4(C)[C@@]3(F)[C@@H](O)C[C@]2(C)[C@@]1(O)C(=O)CO` [DEX, dexamethasone], in data set [2], the “decrease in mean body weight” value is “largest decrease”.
